Test results taken from US4808603A, “3,5-diacyl-2,6-dialkyl-4-aryl-1,4-dihydropyridines, their use, and pharmaceutical compositions thereof” (Ciba-Geigy Corporation, priority 1985, dated 1989).

How the values were obtained:
[1] = test system: isolated perfused mesenteric vessels of rats; assay: inhibition of potassium-induced vasoconstriction in isolated perfused mesenteric vessels of rats; assay type: cell-based; settings: Rattus norvegicus, in vitro
Text: (§1) The compounds of the formula I and salts thereof have valuable pharmacological properties, especially in the cardiovascular field. […] 177, 21-30, (1965)] by way of the inhibition of potassium- and noradrenalininduced vasoconstriction, for example using 2,6-dimethyl-4-(3-nitrophenyl)-1,4-dihydropyridine-3,5-dicarboxylic acid 3-methyl ester 5-[2-[N-(4-(4-fluorophenyl)-4-oxo-n-butyl)-N-methylamino]ethyl ester] at a concentration of approx. 10^-8 mol/liter (IC50) for the inhibition of potassium-induced vasoconstriction, and at a concentration of approx. 3×10^-10 mol/liter (IC50) for the inhibition of noradrenalin-induced vasoconstriction. […] Pharmacol. 21, 301-304 (1982)], for example using 2,6-dimethyl-4-(3-nitrophenyl)-1,4-dihydropyridine-3,5-dicarboxylic acid 3-methyl ester 5-[2-[N-(4-(4-fluorophenyl)-4-oxo-n-butyl)-N-methylamino]ethyl ester] at a concentration of approx. 10^-8 mol/liter (IC50).

renally hypertonic rats = assay: reduction in blood pressure in renally hypertonic rats; assay type: in vivo; settings: 2 hours after p.o. administration of 15 mg/kg
Description: For example, 2 hours after p.o. administration of 15 mg/kg of 2,6-dimethyl-4-(3-nitrophenyl)-1,4-dihydropyridine-3,5dicarboxylic acid 3-methyl ester 5-[2-[N-(4-(4-fluorophenyl)-4-oxo-n-butyl)-N-methylamino]ethyl ester] to renally hypertonic rats, a reduction in blood pressure of approx. 45 mm Hg may be observed.

[2] = test system: isolated perfused mesenteric vessels of rats; assay: inhibition of noradrenalin-induced vasoconstriction in isolated perfused mesenteric vessels of rats; assay type: cell-based; settings: Rattus norvegicus, in vitro
Text: as §1

serotonin2 -receptors = molecular target: T1, serotonin2 -receptors (Rattus norvegicus, UniProt P14842); assay: displacement of 3H-ketanserin from its bonding sites in membranes of rats' brains; assay type: binding; settings: read-out: IC50, displacement of 3H-ketanserin from serotonin2-receptor bonding sites
T1 construct: membranes of rats' brains; from tissue; host or cells: rat brain membranes
T1 sequence (P14842 whole entry): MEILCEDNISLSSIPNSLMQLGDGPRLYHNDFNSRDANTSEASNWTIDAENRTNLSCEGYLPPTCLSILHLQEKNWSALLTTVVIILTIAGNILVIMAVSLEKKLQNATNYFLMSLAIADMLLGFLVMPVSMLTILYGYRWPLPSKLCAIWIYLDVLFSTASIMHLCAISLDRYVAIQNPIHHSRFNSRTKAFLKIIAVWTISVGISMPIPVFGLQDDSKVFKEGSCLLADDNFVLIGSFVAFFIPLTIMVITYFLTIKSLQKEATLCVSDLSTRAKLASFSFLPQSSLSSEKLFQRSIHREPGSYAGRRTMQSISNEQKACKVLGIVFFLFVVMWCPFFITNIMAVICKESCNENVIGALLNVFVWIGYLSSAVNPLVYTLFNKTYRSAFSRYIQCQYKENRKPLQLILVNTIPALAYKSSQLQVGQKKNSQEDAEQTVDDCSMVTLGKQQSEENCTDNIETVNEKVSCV
Text: as §1

In the case of COC(=O)C1=C(C)NC(C)=C(C(=O)OCCN(C)CCCC(=O)c2ccc(F)cc2)C1c1cccc([N+](=O)[O-])c1 (stereo not shown) [2,6-dimethyl-4-(3-nitrophenyl)-1,4-dihydropyridine-3,5-dicarboxylic acid 3-methyl ester 5-[2-[N-(4-(4-fluorophenyl)-4-oxo-n-butyl)-N-methylamino]ethyl ester]], the IC50 [1] is reported as about 10 nM, the “reduction in blood pressure” value (renally hypertonic rats) is reported as “approx. 45 mm Hg” and the IC50 [2] is reported as about 0.3 nM. It also gave an IC50 (serotonin2 -receptors) of about 10 nM.
